Source: patent publication US20230233544A1, “T-TYPE CALCIUM CHANNEL ENHANCER FOR TREATING TAF1 ASSOCIATED NEUROLOGICAL DEFECTS” (ARIZONA BOARD OF REGENTS ON BEHALF OF THE UNIVERSITY OF …, priority 2020, published 2023)

Experiments:
[1] = tested on: gRNA-TAF1 edited Purkinje cells; details: gRNA-TAF1 edited Purkinje cells in cerebellar slices
Description: (§1) Intracerebroventricular injections: Bilateral intracerebroventricular (ICV) injections were performed as previously described in Sprague-Dawley (SD) rat pups on postnatal day 3. Briefly, newborn SD rat puts were anesthetized by isoflurane. A 10 μl syringe (Hamilton Gastight Syringe, #1701) was used to pierce the skull (coordinates from bregma: −0.6 mm posterior, ±1.75 mm lateral/medial, and −2.5 mm ventral), and 2.5 μl of CRISPR lentivirus (gRNA-control or gRNA-TAF1) was injected into each cerebral ventricle without opening the scalp. Neonatal rat pups were kept with the dam until weaned.

CaV3.1 T-type channel = details: TAF-1 edited animals; SAK3 0.25 mg/kg p.o.
Description: (§2) After weaning, the rat pups were separated from the dams and maintained 4 per cage. Animals were divided into six groups. […] Rats were sacrificed at PD35. Animals were behaviorally assessed before being euthanized for histological and protein expression analysis. All biochemical, electrophysiology, and behavior experiments were performed in a blinded fashion. Animal protocols were approved by the Institutional Animal Care and Use Committee of the College of Medicine at the University of Arizona and conducted in accordance with the Guide for Care and Use of Laboratory Animals published by the National Institutes of Health.
as §1
(§3) Rats (n=6 animals per experimental condition) were perfused with saline, and 4% formaldehyde in phosphate buffer saline (PBS) at PD 35, and the brains were extracted and post-fixed in 4% paraformaldehyde for 8 hours at 4° C. Cerebral cortex sections were cut sagittally at 20 μm using a cryostat (Microm HM 505 E). After rinsing the sections in PBS for 5 min, the sections were incubated with a 0.1% H2O2 solution in PBS for 5 min, rinsed in PBS for 5 times for 5 min, and incubated for 30 min with 0.4% Triton X-100, rinsed in PBS and blocked with 8% goat serum and 1% Triton X-100 in PBS. After blocking, the sections were incubated at 4° C. overnight with the indicated antibodies diluted in 4% goat serum in PBS. The sections were washed in 1% goat serum in PBS, incubated with secondary antibody anti-rabbit Alexa fluor 488 (Life Technologies) or anti-mouse Alexa fluor 488 (Life Technologies), as needed, in 4% goat serum for 2 h, washed with PBS 3 times for 5 mins, and incubated with DAPI (Catalogue No: D1306, Thermofisher Scientific) at a concentration of 50 ng/ml for 2 mins. Sections were then washed and further air dried, and coverslip with glycerol.

Iba1-positive microglia = details: TAF1-edited animals; SAK3 0.25 mg/kg p.o.; vs TAF1 edited group
Description: as §2, §1, §3

BDNF [2] = details: TAF1 edited animals; SAK3 0.25 mg/kg p.o.
Description: as §2, §1, §3

[3] = tested on: AKT (phosphorylated at Ser 473); details: cortex of TAF-1 edited animals; SAK3 0.25 mg/kg p.o.
Description: as §2, §1, §3

GFAP-positive astrocytes = details: TAF1-edited animals; SAK3 0.25 mg/kg p.o.; vs TAF1 edited group
Description: as §2, §1, §3

[4] = tested on: TAF1 Intellectual Disability Syndrome
Description: A child is brought by their parent to see their pediatrician for a routine childhood check-up. During the check-up, the pediatrician notices some minor motor deficits in the child. The pediatrician communicates their concerns about the child to their parent. […] A week later, the child is taken in for genetic testing. A month later, the child is brought back to the pediatrician's office so that the pediatrician may discuss the genetic testing results with their parents.

p-CaMKII = details: cerebellum of TAF1 edited animals; SAK3 0.25 mg/kg p.o.
Description: as §2, §1
(§4) Western blotting analysis: After decapitation of animals, brain tissue from the cerebellum was dissected, snap frozen in liquid nitrogen prior to storage at −80° C. until analysis. Western blot analyses were performed as described in Janakiraman et al (Janakiraman, U., Yu, J., Moutal, A., Chinnasamy, D., Boinon, L., Batchelor, S. N., Anandhan, A., Khanna, R., and Nelson, M. A. (2019) TAF1-gene editing alters the morphology and function of the cerebellum and cerebral cortex. Neurobiol Dis 132, 104539). In brief, frozen samples were homogenized with a RIPA buffer and centrifuged at 4 °C, 20,000xg for 20 min. Supernatant protein concentrations were determined using BCA method (Catalog No: #23227, Thermo Scientific), and samples were then boiled 5 min in Laemmli's sample buffer (Catalog No: NP0008, Life Technologies). Equal amounts of protein were loaded onto and run on SDS-polyacrylamide gels (Catalog No: #4568084, Bio-Rad) and then transferred to polyvinylidene difluoride membrane (Catalog No: #1620177, Bio-Rad). After transfer, membranes were blocked with TBST solution (50 mM Tris-HCl, pH 7.5, 150 mM NaCl, and 0.1% Tween 20) containing 5% non-fat dry milk at 4 °C for 1 hour. After blocking membranes were incubated overnight at 4° C. with anti-CaMKII (pan) (1:500; Cell Signaling), anti-phospho-CaMKII (Thr-286) (1:1000; Cell Signaling), anti-cleaved caspase-3 (Asp175) (1:1000; Cell Signaling), anti-Bax (1:1000; Cell Signaling) anti-Bcl-2 (1:1000; Abcam), anti-phospho-GSK3p(Ser9) (1:1000; Cell Signaling), anti-GSK3p (1:1000; Cell Signaling), anti-BDNF (1:750; Abcam), anti-Foxp2 (1:1000; Abcam), anti-CRMP2 pThr509/Thr514 (1:1000; Kina Source Limited), anti-CRMP2 (1:1000; Sigma), and 6111-Tubulin (1:1000; Promega) in 3% BSA.

FOXP2 = details: TAF1-edited animals; SAK3 0.25 mg/kg p.o.
Description: as §2, §1, §4

Phospho (Ser 9)-GSK3β = details: SAK3 0.25 mg/kg p.o.
Description: as §2, §1, §4

BCL2 Associated X (BAX) = details: TAF1 edited animals; SAK3 0.25 mg/kg p.o.; Western
Description: as §2, §1, §4

BDNF [5] = details: TAF1 edited animals; cerebral cortex samples; SAK3 0.25 mg/kg p.o.
Description: as §2, §1, §4

[6] = tested on: phospho-CRMP2 (Thr 509/514); details: TAF1 edited animals; SAK3 0.25 mg/kg p.o.
Description: as §2, §1, §4

cleaved caspase 3 = details: TAF1 edited animals; SAK3 0.25 mg/kg p.o.; Western
Description: as §2, §1, §4

[7] = tested on: B-cell lymphoma 2 (BcI-2); details: TAF1 edited animals; SAK3 0.25 mg/kg p.o.; Western
Description: as §2, §1, §4

TAF1-edited animals = tested on: TAF1-edited animals
Description: as §2, §1

cerebral cortex neurons = details: TAF1-edited animals
Description: as §2, §1

cerebral cortex = details: TAF1 edited animals; SAK3 0.25 mg/kg p.o.
Description: as §2, §1

[8] = SAK3 0.25 mg/kg p.o. PD21 to PD35, vs TAF1-edited animals

In the case of CCOC(=O)C1=C(N2CCCCC2)C2(CC1=O)C(=O)N=C1C(C)=CC=CN12 (stereo not drawn) [SAK3, ethyl 8′-methyl-2′, 4-dioxo-2-(piperidin-1-yl)-2′H-spiro [cyclopent[2]ene-1,3′-imidazo[1,2-a]pyridine]-3-carboxylate], the “Amplitudes of sEPSC” value ([1]; SAK3 0.1 nM) is reported as “No changes”, the “Frequency of sEPSC” value ([1]; SAK3 0.1 nM in perfusion, held at −70 mV, mean±S.E.M.) is reported as 2.13±0.29 Hz and the “CaV3.1 T-type channel expression” value (CaV3.1 T-type channel) is reported as “restored by SAK3 treatment”. For the same compound, the “Number of Iba1-positive cells” value (Iba1-positive microglia) was “decrease the number of Iba1-positive cells”, the “BDNF expression (immunofluorescence, BDNF-positive cells)” value (BDNF [2]) was “restored BDNF expression to the levels in Naïve and gRNA-control groups” and the “Activated AKT (phosphorylated at Ser 473) expression” value [3] was “prevented by SAK3 treatment”. The “Number of GFAP-positive cells” value (GFAP-positive astrocytes) was “increase the number of GFAP-positive cells”, the “Motor skills and cognitive abilities” value ([4]; child with TAF1 ID syndrome, SAK3 composition orally, after six months) was “improved motor skills and cognitive abilities” and the Side effects ([4]; in vivo, po) was “No side effects reported”. For the same compound, the “CaMKII activation (phosphorylation at T286)” value (p-CaMKII) was “restoration of CaMKII activation in the cerebellum of SAK3 treated animals was not observed”, the FOXP2 levels (FOXP2) was “restored FOXP2” and the “Phospho (Ser 9)-GSK3β levels” value (Phospho (Ser 9)-GSK3β; TAF1 edited animals, cerebral cortex samples) was “increased phopho-GSK3β levels”. For the same compound, the p-GSK3β levels (Phospho (Ser 9)-GSK3β; gRNA-TAF1 edited animals, cerebellum samples) was “rescued by SAK3 treatment”, the BAX level (BCL2 Associated X (BAX)) was “downregulation of the pro-apoptotic factor BCL2 Associated X (BAX)” and the “BDNF expression (Western analysis)” value (BDNF [5]) was “restored BDNF expression to the levels in Naïve and gRNA-control groups”. For the same compound, the “phospho-CRMP2 (Thr 509/514) levels” value [6] was “restored phospho-CRMP2 levels”, the “Activated (cleaved) caspase 3 level” value (cleaved caspase 3) was “downregulation of activated caspase 3” and the Bcl-2 level [7] was “up-regulation of B-cell lymphoma 2 (BcI-2)”. For the same compound, the “Grooming frequency (number of groomings)” value (TAF1-edited animals; SAK3 0.25 mg/kg p.o. PD21 to PD35, open field 5 min) was “blunted by SAK3 treatment”, the Beam crossing time (TAF1-edited animals; [8]) was “rescue of the beam crossing time” and the “Number of foot slip errors” value (TAF1-edited animals; [8]) was “rescue of the beam crossing time and foot slip errors”. The “Morphology of the cells in the cortex (Nissl staining)” value (cerebral cortex neurons; SAK3 0.25 mg/kg p.o. PD21 to PD35) was “improved the morphology of the cells in the cortex”, the “Number of viable cells in the cerebral cortex” value (cerebral cortex neurons; SAK3 0.25 mg/kg p.o., vs TAF1-edited animals) was “increased the number of viable cells” and the “Number of TUNEL positive cells” value (cerebral cortex) was “reduced the number of TUNEL positive cells to control levels”.
